The source made the active and inactive calls. The rule behind the calls is not given here.
Legend:
Albumin [1] = biological target: T1, Albumin (Bos taurus, UniProt P02769); assay: Antiglycation activity in bovine serum albumin assessed as inhibition of advanced glycated end product formation in presence of D-glucose by spectrofluorimetric analysis; details: for inhibition (INH): cattle
Albumin [2] = biological target: T1, Albumin; assay: Antiglycation activity in bovine serum albumin assessed as inhibition of advanced glycated end product formation in presence of D-glucose and 5-hydroxyferulic acid by spectrofluorimetric analysis; details: cattle
Albumin [3] = biological target: T1, Albumin; assay: Antiglycation activity in bovine serum albumin assessed as inhibition of advanced glycated end product formation in presence of D-glucose at 10 mM by spectrofluorimetric analysis; details: cattle
Albumin [4] = biological target: T1, Albumin; assay: Antiglycation activity in bovine serum albumin assessed as inhibition of advanced glycated end product formation in presence of D-glucose and ferulic acid by spectrofluorimetric analysis; details: cattle
Albumin [5] = biological target: T2, Albumin (Homo sapiens, UniProt P02768); assay: Antiglycation activity in human serum albumin assessed as inhibition of fructosamine formation by measuring amadori products after 10 to 15 mins by NBT assay
T2 sequence (P02768 whole entry): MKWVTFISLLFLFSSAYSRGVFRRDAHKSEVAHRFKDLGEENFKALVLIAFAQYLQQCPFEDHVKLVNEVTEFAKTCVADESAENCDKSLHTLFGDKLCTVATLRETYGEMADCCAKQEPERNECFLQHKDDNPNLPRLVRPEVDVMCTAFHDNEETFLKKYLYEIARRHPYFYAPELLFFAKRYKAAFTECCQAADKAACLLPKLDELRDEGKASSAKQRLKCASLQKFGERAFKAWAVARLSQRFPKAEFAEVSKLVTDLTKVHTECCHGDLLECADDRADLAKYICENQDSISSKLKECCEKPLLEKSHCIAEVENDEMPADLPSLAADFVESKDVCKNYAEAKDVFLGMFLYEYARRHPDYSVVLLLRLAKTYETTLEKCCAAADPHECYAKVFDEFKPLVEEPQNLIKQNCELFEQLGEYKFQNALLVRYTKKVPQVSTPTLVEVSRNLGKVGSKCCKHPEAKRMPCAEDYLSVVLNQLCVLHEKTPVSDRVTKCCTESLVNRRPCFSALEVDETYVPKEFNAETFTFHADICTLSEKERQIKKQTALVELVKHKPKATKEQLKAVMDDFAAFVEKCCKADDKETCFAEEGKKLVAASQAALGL

[6] = Inhibition of glucose auto-oxidation after 30 mins in presence of deoxyribose by benzoate hydroxylation assay; type: functional
Albumin [7] = biological target: T1, Albumin; assay: Antiglycation activity in bovine serum albumin assessed as inhibition of MGO-mediated protein modification after 5 days by PAGE analysis; details: cattle, 120 h
Albumin [8] = biological target: T2, Albumin; assay: Antiglycation activity in human serum albumin assessed as inhibition of fructosamine formation by measuring amadori products after 10 to 15 mins in presence of 5-hydroxyferulic acid by NBT assay

T1 sequence (P02769 whole entry): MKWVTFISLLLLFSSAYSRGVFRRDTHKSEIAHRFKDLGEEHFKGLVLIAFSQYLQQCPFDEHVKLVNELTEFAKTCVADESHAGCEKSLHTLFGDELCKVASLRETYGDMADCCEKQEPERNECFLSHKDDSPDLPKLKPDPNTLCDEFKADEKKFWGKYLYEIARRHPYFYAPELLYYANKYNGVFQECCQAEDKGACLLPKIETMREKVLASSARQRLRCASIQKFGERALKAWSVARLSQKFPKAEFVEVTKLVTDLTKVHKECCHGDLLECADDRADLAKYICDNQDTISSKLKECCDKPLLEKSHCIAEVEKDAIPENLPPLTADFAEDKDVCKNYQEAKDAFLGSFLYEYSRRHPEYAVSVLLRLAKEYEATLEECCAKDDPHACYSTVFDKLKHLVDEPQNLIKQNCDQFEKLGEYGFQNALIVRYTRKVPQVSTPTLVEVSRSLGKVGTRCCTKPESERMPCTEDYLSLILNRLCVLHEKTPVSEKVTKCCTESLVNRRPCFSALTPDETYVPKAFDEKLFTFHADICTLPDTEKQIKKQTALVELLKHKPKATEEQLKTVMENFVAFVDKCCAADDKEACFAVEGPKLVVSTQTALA

## COc1cc(/C=C/C(=O)O)ccc1O [FERULATE]
Albumin [1]
  inhibition (INH): Not Active
Albumin [2]
  inhibition (INH): Active

## N=C(N)NN [PIMAGEDINE]
Albumin [1]
  EC50: 26 mM
Albumin [3]
  inhibition (INH): Active

## CCCCCC/C=C\CCCCCCCCCC(=O)O [VACCENIC ACID]
Albumin [1]
  inhibition (INH): 66%

## COc1cc(/C=C/C(=O)O)cc(O)c1O
Albumin [4]
  inhibition (INH): Active
Albumin [1]
  inhibition (INH): Not Active

## CC(=O)c1c(O)cc(O)c(C(C)=O)c1O
Albumin [5]
  inhibition (INH): Not Active
Albumin [1]
  EC50: 6.3 mM
  inhibition (INH): 83%
Albumin [2]
  inhibition (INH): Active
[6]
  inhibition: Active
Albumin [7]
  inhibition (INH): Active
Albumin [8]
  inhibition (INH): Active

## CCCCCCCC/C=C\CCCCCCC(=O)O
Albumin [1]
  inhibition (INH): 66%

## CCCCCCCCCCCCCCCC(=O)O [PALMITIC ACID]
Albumin [1]
  inhibition (INH): 66%

Source: ChEMBL document CHEMBL4190264, “Phylogenomics of 2,4-Diacetylphloroglucinol-Producing Pseudomonas and Novel Antiglycation Endophytes from Piper auritum” (J Nat Prod, 2017)
